{
  "source": "paper PMC9694494",
  "about": "“Resveratrol/Hydrazone Hybrids: Synthesis and Chemopreventive Activity against Colorectal Cancer Cells” (Pharmaceutics, 2022)",
  "key": {"CHO-K1 cells": {"system": "CHO-K1 cells", "assay": "SRB cell viability (cytotoxicity), CHO-K1", "format": "cell-based", "settings": "Cricetulus griseus, CHO-K1 nonmalignant cells, read-out: IC50 ± SEM CHO", "procedure": "(§1) Human colon cancer cell lines (SW480 and SW620), together with nonmalignant cells (CHO-K1 and HaCaT) were used to study the biological activity. Cells were purchased from the European Collection of Authenticated Cell Cultures (ECACC, UK). Dulbecco’s Modified Eagle Medium (DMEM) containing heat-inactivated (56 °C) horse serum (10%), non-essential amino acids (1%) and antibiotics (penicillin/streptomycin, 1%) (Gibco Invitrogen, Carlsbad, CA, USA) was used to maintain the cells, reducing the horse serum to 3%, and, adding insulin ([…]), transferrin ([…]) and selenium (5 ng/mL) (ITS-defined medium; Gibco, Invitrogen, Carlsbad, CA, USA) for all the experiments.\n(§2) The colorimetric test with Sulforhodamine B (SRB) was used to evaluate cell viability. Cell density was adjusted to seed 20.000 cells/well in 96-well tissue culture plates. Cells were first incubated for 24 h and then treated with the synthesized hybrids, the lead compounds (PIH and resveratrol), and the reference drug (5-FU) (concentrations between 0.01 and 200 µM), using DMSO (below 1%) as vehicle control. The optimum conditions were 37 °C and 5% CO2. After the end of each treatment, cold trichloroacetic acid (MERCK, 50% v/v) was added and preserved for one hour at 4 °C, to fix the cells. Then, cell proteins were stained with 0.4% (w/v) SRB (Sigma-Aldrich, St. Louis, MO, USA), and subsequently washed with acetic acid (1%) to remove unbound SRB. After air-drying, protein-bound SRB was solubilized in 10 mM Tris-base before reading the absorbance at 492 nm in a microplate reader (Mindray MR-96A). All experiments were performed at least three times."}, "HaCaT cells": {"system": "HaCaT cells", "assay": "SRB cell viability (cytotoxicity), HaCaT", "format": "cell-based", "settings": "Homo sapiens, HaCaT nonmalignant cells, read-out: IC50 ± SEM HACAT", "procedure": "as §1, §2"}, "SW480 cells [1]": {"system": "SW480 cells", "assay": "SRB cell viability (cytotoxicity), SW480", "format": "cell-based, human", "settings": "for Selectivity Index SI1: CHO-K1/SW480 IC50 ratio; for Selectivity Index SI2: HaCaT/SW480 IC50 ratio; for IC50: Homo sapiens, SW480, SRB, read-out: IC50 ± SEM SW480", "procedure": "as §1, §2"}, "SW620 cells": {"system": "SW620 cells", "assay": "SRB cell viability (cytotoxicity), SW620", "format": "cell-based, human", "settings": "for Selectivity Index SI3: CHO-K1/SW620 IC50 ratio; for Selectivity Index SI4: HaCaT/SW620 IC50 ratio; for IC50: Homo sapiens, SW-620, SRB, read-out: IC50 ± SEM SW620", "procedure": "as §1, §2"}, "SW480 cells [2]": {"system": "SW480 cells", "assay": "Antiproliferative activity (SRB, 2-8 days), SW480", "format": "cell-based", "settings": "Homo sapiens, read-out: Viability (%) ± SE; for viability at 3 µM: SW480, 3 µM; for viability at 6 µM: SW480, 6 µM; for viability at 12 µM: SW480, 12 µM; for viability at 24 µM: SW480, 24 µM; for viability at 48 µM: SW480, 48 µM", "procedure": "The procedure for evaluating the antiproliferative activity was carried out using the same colorimetric test (SRB) described for cell viability, with minor modifications. Briefly, 2500 cells/well were seeded in 96-well tissue culture plates and incubated as in the previously described conditions for 0, 2, 4, 6, and 8 days. […] The culture medium was changed every 48 h. After each incubation time, cells were fixed, stained, and read as previously described for this technique."}, "SW480 cells [3]": {"system": "SW480 cells", "assay": "Mitochondrial membrane potential (DiOC6/PI flow cytometry), SW480", "format": "cell-based, human", "settings": "SW480, treated at IC50 value, DiOC6/PI", "procedure": "To evaluate changes in mitochondrial membrane permeability, the fluorescent dyes DiOC6 (3,3′-dihexyloxacarbocyanine iodide, Thermo Fisher Scientific, Waltham, MA, USA) and propidium iodide (PI) were used. Cell density was adjusted to seed 2.5 × 10^5 cells/well in 6-well tissue culture plates. […] Subsequently, cells were scraped with the same culture mean and stained with both fluorescent dyes, incubating at room temperature for 30 min in darkness. For each sample, 10,000 events were analyzed through flow cytometry with excitation at 488 nm and detection of the emission with the green (530/15 nm) and the red (610/20 nm) filters. The results informed about the cells with depolarized mitochondrial membranes."}},
  "note": "Read-outs that look alike come from different tables or passages of the source.",
  "data": [
    {"molecule": "COc1ccc(C(=O)N/N=C/c2c(O)cc(O)cc2/C=C/c2ccc(O)cc2)c(OC)c1", "note": "[6e, N′-((E)-2,4-dihydroxy-6-((E)-4-hydroxystyryl)benzylidene)-2,4-dimethoxybenzohydrazide]", "values": [
      {"measurement": "IC50", "setting": "CHO-K1 cells; 24 H", "result": "20.6 ± 3.06", "unit": "µM"},
      {"measurement": "IC50", "setting": "CHO-K1 cells; 48 H", "result": "18.8 ± 1.9", "unit": "µM"},
      {"measurement": "IC50", "setting": "HaCaT cells; 24 H", "result": "34.4 ± 3.96", "unit": "µM"},
      {"measurement": "IC50", "setting": "HaCaT cells; 48 H", "result": "19.1 ± 0.8", "unit": "µM"},
      {"measurement": "Selectivity Index SI1", "setting": "SW480 cells [1]; 24 H", "result": 0.85},
      {"measurement": "Selectivity Index SI2", "setting": "SW480 cells [1]; 24 H", "result": 1.42},
      {"measurement": "Selectivity Index SI1", "setting": "SW480 cells [1]; 48 H", "result": 2.89},
      {"measurement": "Selectivity Index SI2", "setting": "SW480 cells [1]; 48 H", "result": 2.94},
      {"measurement": "IC50", "setting": "SW480 cells [1]; 24 H", "result": "24.2 ± 3.29", "unit": "µM"},
      {"measurement": "IC50", "setting": "SW480 cells [1]; 48 H", "result": "6.5 ± 1.9", "unit": "µM"},
      {"measurement": "selectivity (SI)", "setting": "SW480 cells [1]; SW480 versus the nonmalignant cell lines, 48 h after treatment", "result": "> 1"},
      {"measurement": "Selectivity Index SI3", "setting": "SW620 cells; 24 H", "result": 0.28},
      {"measurement": "Selectivity Index SI4", "setting": "SW620 cells; 24 H", "result": 0.46},
      {"measurement": "Selectivity Index SI3", "setting": "SW620 cells; 48 H", "result": 0.67},
      {"measurement": "Selectivity Index SI4", "setting": "SW620 cells; 48 H", "result": 0.69},
      {"measurement": "IC50", "setting": "SW620 cells; 24 H", "result": "74.8 ± 12.9", "unit": "µM"},
      {"measurement": "IC50", "setting": "SW620 cells; 48 H", "result": "27.8 ± 3.9", "unit": "µM"},
      {"measurement": "viability at 3 µM", "setting": "SW480 cells [2]; 48 h, 2 days after plating", "result": "95 ± 3.11", "unit": "%"},
      {"measurement": "viability at 6 µM", "setting": "SW480 cells [2]; 48 h, 2 days after plating", "result": "58.9 ± 0.89", "unit": "%"},
      {"measurement": "viability at 12 µM", "setting": "SW480 cells [2]; 48 h, 2 days after plating", "result": "38.4 ± 2.67", "unit": "%"},
      {"measurement": "viability at 24 µM", "setting": "SW480 cells [2]; 48 h, 2 days after plating", "result": "23.9 ± 0.82", "unit": "%"},
      {"measurement": "viability at 48 µM", "setting": "SW480 cells [2]; 48 h, 2 days after plating", "result": "9.44 ± 1.17", "unit": "%"},
      {"measurement": "viability at 3 µM", "setting": "SW480 cells [2]; 96 h, 4 days after plating", "result": "68.5 ± 1.31", "unit": "%"},
      {"measurement": "viability at 6 µM", "setting": "SW480 cells [2]; 96 h, 4 days after plating", "result": "10.5 ± 0.87", "unit": "%"},
      {"measurement": "viability at 12 µM", "setting": "SW480 cells [2]; 96 h, 4 days after plating", "result": "2.78 ± 0.42", "unit": "%"},
      {"measurement": "viability at 24 µM", "setting": "SW480 cells [2]; 96 h, 4 days after plating", "result": "0.81 ± 0.38", "unit": "%"},
      {"measurement": "viability at 48 µM", "setting": "SW480 cells [2]; 96 h, 4 days after plating", "result": "0.3 ± 0.33", "unit": "%"},
      {"measurement": "viability at 3 µM", "setting": "SW480 cells [2]; 144 h, 6 days after plating", "result": "49 ± 2.08", "unit": "%"},
      {"measurement": "viability at 6 µM", "setting": "SW480 cells [2]; 144 h, 6 days after plating", "result": "5.03 ± 0.19", "unit": "%"},
      {"measurement": "viability at 12 µM", "setting": "SW480 cells [2]; 144 h, 6 days after plating", "result": "0.76 ± 0.36", "unit": "%"},
      {"measurement": "viability at 24 µM", "setting": "SW480 cells [2]; 144 h, 6 days after plating", "result": 0, "unit": "%"},
      {"measurement": "viability at 48 µM", "setting": "SW480 cells [2]; 144 h, 6 days after plating", "result": 0, "unit": "%"},
      {"measurement": "viability at 3 µM", "setting": "SW480 cells [2]; 192 h, 8 days after plating", "result": "33.86 ± 0.3", "unit": "%"},
      {"measurement": "viability at 6 µM", "setting": "SW480 cells [2]; 192 h, 8 days after plating", "result": "2.52 ± 0.1", "unit": "%"},
      {"measurement": "viability at 12 µM", "setting": "SW480 cells [2]; 192 h, 8 days after plating", "result": "0.48 ± 0.11", "unit": "%"},
      {"measurement": "viability at 24 µM", "setting": "SW480 cells [2]; 192 h, 8 days after plating", "result": 0, "unit": "%"},
      {"measurement": "viability at 48 µM", "setting": "SW480 cells [2]; 192 h, 8 days after plating", "result": 0, "unit": "%"},
      {"measurement": "Q1: PI-positive cells with membrane damage", "setting": "SW480 cells [3]", "result": 0.288, "unit": "%"},
      {"measurement": "Q2: PI-positive cells with membrane damage", "setting": "SW480 cells [3]", "result": 0.831, "unit": "%"},
      {"measurement": "Q3: DiOC6 high, live cells with high membrane polarization", "setting": "SW480 cells [3]", "result": 98.6, "unit": "%"},
      {"measurement": "Q4: DiOC6 low, cells in latency that lose membrane polarization", "setting": "SW480 cells [3]", "result": 0.305, "unit": "%"}
    ]}
  ]
}
